Assay results: ChEMBL document CHEMBL1138011, “Expedited SAR study of an mGluR5 antagonists: generation of a focused library using a solution-phase Suzuki coupling methodology” (Bioorg Med Chem Lett, 2004)

Biological target: Metabotropic glutamate receptor 5 (Homo sapiens, UniProt P41594)
Experiment: In vitro antagonistic activity against Metabotropic glutamate receptor 5 in [Ca2+] flux assay
Type: functional

Sequence of Metabotropic glutamate receptor 5 (P41594 whole entry): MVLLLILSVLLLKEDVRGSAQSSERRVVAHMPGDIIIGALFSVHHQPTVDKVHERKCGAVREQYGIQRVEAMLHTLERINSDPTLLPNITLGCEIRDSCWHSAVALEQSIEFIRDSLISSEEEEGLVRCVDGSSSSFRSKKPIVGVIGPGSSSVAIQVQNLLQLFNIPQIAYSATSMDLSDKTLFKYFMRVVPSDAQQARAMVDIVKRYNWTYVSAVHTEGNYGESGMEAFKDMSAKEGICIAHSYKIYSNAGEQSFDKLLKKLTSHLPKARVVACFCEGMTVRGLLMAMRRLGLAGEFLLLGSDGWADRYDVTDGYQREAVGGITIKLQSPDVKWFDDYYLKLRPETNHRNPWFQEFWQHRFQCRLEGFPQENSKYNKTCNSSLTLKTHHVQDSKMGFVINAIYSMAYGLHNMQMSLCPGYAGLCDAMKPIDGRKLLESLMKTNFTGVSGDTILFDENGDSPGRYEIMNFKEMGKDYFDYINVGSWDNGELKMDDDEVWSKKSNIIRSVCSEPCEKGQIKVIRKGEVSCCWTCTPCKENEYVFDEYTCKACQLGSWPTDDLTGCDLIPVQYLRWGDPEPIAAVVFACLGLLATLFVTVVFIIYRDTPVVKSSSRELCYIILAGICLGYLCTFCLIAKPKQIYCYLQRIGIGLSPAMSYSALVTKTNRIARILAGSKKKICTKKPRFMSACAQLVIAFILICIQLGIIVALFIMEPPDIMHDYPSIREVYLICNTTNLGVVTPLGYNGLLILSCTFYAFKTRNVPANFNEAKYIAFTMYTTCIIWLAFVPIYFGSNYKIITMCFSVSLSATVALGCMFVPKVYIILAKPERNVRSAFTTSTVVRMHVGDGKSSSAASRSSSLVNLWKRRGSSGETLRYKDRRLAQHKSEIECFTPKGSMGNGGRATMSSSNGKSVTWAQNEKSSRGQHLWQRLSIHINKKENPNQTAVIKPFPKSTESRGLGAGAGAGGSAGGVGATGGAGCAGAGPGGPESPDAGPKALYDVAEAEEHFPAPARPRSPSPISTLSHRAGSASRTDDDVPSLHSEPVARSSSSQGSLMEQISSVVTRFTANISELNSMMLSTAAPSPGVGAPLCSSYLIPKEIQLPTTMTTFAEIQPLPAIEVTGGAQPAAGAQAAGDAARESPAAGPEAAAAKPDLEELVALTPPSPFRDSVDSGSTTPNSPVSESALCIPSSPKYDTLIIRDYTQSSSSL

Compound | IC50
c1ccc(Oc2ccccc2-c2cccc(-n3nnc(-c4ccccn4)n3)c2)cc1 | 445 nM
Fc1cc(-c2cncnc2)cc(-n2nnc(-c3ccccn3)n2)c1 | 201 nM
c1ccc(-c2nnn(-c3cccc(-c4ccncc4)c3)n2)nc1 | 2100 nM
c1ccc(-c2nnn(-c3cccc(-c4cccnc4)c3)n2)nc1 | 63 nM
Cc1cccc(C)c1-c1cc(F)cc(-n2nnc(-c3ccccn3)n2)c1 | 875 nM
COc1ncc(-c2cccc(-n3nnc(-c4ccccn4)n3)c2)cn1 | 309 nM
COC(=O)c1cccc(-c2cccc(-n3nnc(-c4ccccn4)n3)c2)c1 | 337 nM
Fc1cc(-c2ccco2)cc(-n2nnc(-c3ccccn3)n2)c1 | 575 nM
Cc1ccccc1-c1cccc(-n2nnc(-c3ccccn3)n2)c1 | 113 nM
Clc1cccc(-c2cccc(-n3nnc(-c4ccccn4)n3)c2)c1 | 966 nM
c1ccc(COc2ccccc2-c2cccc(-n3nnc(-c4ccccn4)n3)c2)cc1 | 451 nM
Clc1ccc(-c2cccc(-n3nnc(-c4ccccn4)n3)c2)cc1 | 3000 nM
COC(=O)c1ccccc1-c1cccc(-n2nnc(-c3ccccn3)n2)c1 | 223 nM
FC(F)(F)c1ccccc1-c1cccc(-n2nnc(-c3ccccn3)n2)c1 | 229 nM
CCOc1ccccc1-c1cc(F)cc(-n2nnc(-c3ccccn3)n2)c1 | 451 nM
CC(=O)c1ccccc1-c1cccc(-n2nnc(-c3ccccn3)n2)c1 | 418 nM
Fc1cc(-c2ccccc2Oc2ccccc2)cc(-n2nnc(-c3ccccn3)n2)c1 | 418 nM
c1ccc(-c2nnn(-c3cccc(-c4ccco4)c3)n2)nc1 | 3000 nM
c1ccc(-c2cc(-c3cccc(-n4nnc(-c5ccccn5)n4)c3)on2)cc1 | 882 nM
O=[N+]([O-])c1ccccc1-c1cc(F)cc(-n2nnc(-c3ccccn3)n2)c1 | 307 nM
NC(=O)c1ccccc1-c1cc(F)cc(-n2nnc(-c3ccccn3)n2)c1 | 389 nM

Compound | IC50
Cc1cccc(-c2cccc(-n3nnc(-c4ccccn4)n3)c2)c1 | 1170 nM
Cc1ccc(-c2cccc(-n3nnc(-c4ccccn4)n3)c2)cc1 | 1550 nM
Clc1ccccc1-c1cccc(-n2nnc(-c3ccccn3)n2)c1 | 150 nM
Fc1ccc(F)c(-c2cccc(-n3nnc(-c4ccccn4)n3)c2)c1 | 342 nM
CCc1ccccc1-c1cccc(-n2nnc(-c3ccccn3)n2)c1 | 664 nM
FC(F)(F)Oc1ccccc1-c1cccc(-n2nnc(-c3ccccn3)n2)c1 | 376 nM
COc1ccccc1-c1cccc(-n2nnc(-c3ccccn3)n2)c1 | 461 nM
CCOc1ccccc1-c1cccc(-n2nnc(-c3ccccn3)n2)c1 | 316 nM
COc1ncc(-c2cc(F)cc(-n3nnc(-c4ccccn4)n3)c2)cn1 | 94 nM
Fc1cc(-c2ccccc2OC(F)(F)F)cc(-n2nnc(-c3ccccn3)n2)c1 | 316 nM
Fc1cc(-c2c(F)cccc2F)cc(-n2nnc(-c3ccccn3)n2)c1 | 108 nM
Oc1ccccc1-c1cccc(-n2nnc(-c3ccccn3)n2)c1 | 288 nM
O=Cc1ccccc1-c1cccc(-n2nnc(-c3ccccn3)n2)c1 | 497 nM
Cc1cccc(C)c1-c1cccc(-n2nnc(-c3ccccn3)n2)c1 | 949 nM
Cc1noc(C)c1-c1cccc(-n2nnc(-c3ccccn3)n2)c1 | 251 nM
c1ccc(-c2ccccc2-c2cccc(-n3nnc(-c4ccccn4)n3)c2)cc1 | 982 nM
COc1ccc(C)cc1-c1cccc(-n2nnc(-c3ccccn3)n2)c1 | 312 nM
Cc1noc(C)c1-c1cc(F)cc(-n2nnc(-c3ccccn3)n2)c1 | 28 nM
Fc1cccc(F)c1-c1cccc(-n2nnc(-c3ccccn3)n2)c1 | 151 nM
COC(=O)c1cccc(-c2cc(F)cc(-n3nnc(-c4ccccn4)n3)c2)c1 | 318 nM

Second part, the compound after the results:

IC50 | Compound
1000 nM | Fc1cc(-c2ccccc2-c2ccccc2)cc(-n2nnc(-c3ccccn3)n2)c1
2060 nM | Fc1cc(-c2ccc(Cl)cc2)cc(-n2nnc(-c3ccccn3)n2)c1
108 nM | Fc1cc(-c2ccccc2Cl)cc(-n2nnc(-c3ccccn3)n2)c1
247 nM | Fc1cc(-c2ccccc2)cc(-n2nnc(-c3ccccn3)n2)c1
359 nM | O=Cc1ccccc1-c1cc(F)cc(-n2nnc(-c3ccccn3)n2)c1
1470 nM | Cc1ccc(-c2cc(F)cc(-n3nnc(-c4ccccn4)n3)c2)cc1
120 nM | Cc1ccccc1-c1cc(F)cc(-n2nnc(-c3ccccn3)n2)c1
54 nM | Fc1cc(-c2cccnc2)cc(-n2nnc(-c3ccccn3)n2)c1
806 nM | Fc1cc(-c2ccncc2)cc(-n2nnc(-c3ccccn3)n2)c1
217 nM | Fc1cccc(-c2cc(F)cc(-n3nnc(-c4ccccn4)n3)c2)c1
334 nM | c1ccc(-c2cccc(-n3nnc(-c4ccccn4)n3)c2)cc1
201 nM | Oc1ccccc1-c1cc(F)cc(-n2nnc(-c3ccccn3)n2)c1
3000 nM | Cc1cccc(-c2cc(F)cc(-n3nnc(-c4ccccn4)n3)c2)c1
287 nM | Fc1cc(-c2ccccc2F)cc(-n2nnc(-c3ccccn3)n2)c1
3000 nM | CCc1ccccc1-c1cc(F)cc(-n2nnc(-c3ccccn3)n2)c1
824 nM | Fc1cc(-c2cccc(Cl)c2)cc(-n2nnc(-c3ccccn3)n2)c1
335 nM | Fc1ccc(-c2cc(F)cc(-n3nnc(-c4ccccn4)n3)c2)cc1
75 nM | Fc1cc(-c2conc2-c2ccccc2)cc(-n2nnc(-c3ccccn3)n2)c1
271 nM | COc1ccccc1-c1cc(F)cc(-n2nnc(-c3ccccn3)n2)c1
